Reference: the supplement of paper PMC13380429

Assays:
[1] = system: A549-ACE2 infected with SARS-CoV-2; assay: cell count relative to DMSO; higher = less toxic; details: 24 h
[2] = system: Caco-2; assay: cell viability relative to DMSO; higher = less toxic; details: 72 h
[3] = system: HepG2; assay: as above; details: 72 h
[4] = system: U2OS; assay: as above; details: 72 h
[5] = system: Vero E6; assay: as above; details: 72 h
[6] = system: A549-ACE2 infected with SARS-CoV-2; assay: SARS-CoV-2 infection rate relative to DMSO; higher = more infection; details: 24 h
[7] = system: A549-ACE2; assay: drug-induced phospholipidosis relative to tamoxifen; higher = more phospholipidosis
[8] = system: A549-ACE2 infected with SARS-CoV-2; assay: morphology score (similarity to uninfected cells); higher = more like uninfected cells; details: 24 h
[9] = system: Caco-2; assay: relative viability EC50 (midpoint between 100% and the lowest measured viability); higher = less toxic; details: 72 h
[10] = system: HepG2; assay: as above; details: 72 h
[11] = system: U2OS; assay: as above; details: 72 h
[12] = system: Vero E6; assay: as above; details: 72 h
[13] = system: Caco-2; assay: drug sensitivity score (DSS) for viability; higher = more toxic; extreme values may be limits of the assay; details: 72 h
[14] = system: HepG2; assay: as above; details: 72 h
[15] = system: U2OS; assay: as above; details: 72 h
[16] = system: Vero E6; assay: as above; details: 72 h
[17] = system: Calu-3; assay: cell viability relative to DMSO; higher = less toxic; details: 72 h
[18] = system: A549-ACE2; assay: phospholipidosis EC50; higher = less potent phospholipidosis inducer
[19] = system: Calu-3; assay: relative viability EC50 (midpoint between 100% and the lowest measured viability); higher = less toxic; details: 72 h
[20] = system: Calu-3; assay: drug sensitivity score (DSS) for viability; higher = more toxic; extreme values may be limits of the assay; details: 72 h

N=C(N)c1cc2ccc(OC(=O)c3cccs3)cc2s1 [BCX-1470]
Details	SARS-CoV-2 infection rate, [6] [%]	cell count, [1] [%]	cell viability, [2] [%]	cell viability, [3] [%]	cell viability, [4] [%]	cell viability, [5] [%]	morphology score, [8]
1 nM	–	–	97.9	112	100	97	–
10 nM	–	–	96.1	100	100	95.2	–
100 nM	–	–	95.5	104	98.4	92.8	–
0.3 µM	97	102	–	–	–	–	0.05
1000 nM	–	–	96.5	102	95.9	98.2	–
3 µM	99	99	–	–	–	–	-0.11
10 µM	54	95	–	–	–	–	0.59
10000 nM	–	–	107	13.1	101	96.2	–
30 µM	22	52	–	–	–	–	0.39

drug-induced phospholipidosis [%], [7]
Details	0.3 µM	0.833333 µM	3.33333 µM	6.66667 µM	10 µM
24 h	1.95	3.92	0.54	7.05	10.8
48 h	1.86	-0.27	-2.94	10.7	17.1
72 h	0.245	-2.66	-0.938	1.04	8.25

Details	drug sensitivity score	relative viability EC50 [µM]
[9]	–	> 10
[10]	–	3.32
[11]	–	> 10
[12]	–	> 10
[13]	0	–
[14]	4.6	–
[15]	0	–
[16]	0	–

CC(C)c1cnn2c(NCc3ccccc3)cc(NCCCCCCN)nc12 [BS-181]
Details	SARS-CoV-2 infection rate [%]	cell count [%]	cell viability [%]	morphology score	phospholipidosis EC50 [µM]
[1], 0.3 µM	–	102	–	–	–
[1], 3 µM	–	115	–	–	–
[1], 10 µM	–	101	–	–	–
[1], 30 µM	–	47	–	–	–
[2], 1 nM	–	–	101	–	–
[2], 10 nM	–	–	84	–	–
[2], 100 nM	–	–	122	–	–
[2], 1000 nM	–	–	90.2	–	–
[2], 10000 nM	–	–	79	–	–
[3], 1 nM	–	–	97	–	–
[3], 10 nM	–	–	92	–	–
[3], 100 nM	–	–	98.1	–	–
[3], 1000 nM	–	–	90.3	–	–
[3], 10000 nM	–	–	80	–	–
[4], 1 nM	–	–	102	–	–
[4], 10 nM	–	–	94.8	–	–
[4], 100 nM	–	–	101	–	–
[4], 1000 nM	–	–	96.1	–	–
[4], 10000 nM	–	–	91	–	–
[5], 1 nM	–	–	98.5	–	–
[5], 10 nM	–	–	97.6	–	–
[5], 100 nM	–	–	99	–	–
[5], 1000 nM	–	–	94.6	–	–
[5], 10000 nM	–	–	86.1	–	–
[6], 0.3 µM	99	–	–	–	–
[6], 3 µM	37	–	–	–	–
[6], 10 µM	9	–	–	–	–
[6], 30 µM	25	–	–	–	–
[8], 0.3 µM	–	–	–	0.12	–
[8], 3 µM	–	–	–	0.87	–
[8], 10 µM	–	–	–	0.93	–
[8], 30 µM	–	–	–	0.26	–
[17], 1 nM	–	–	100	–	–
[17], 10 nM	–	–	106	–	–
[17], 100 nM	–	–	99.9	–	–
[17], 1000 nM	–	–	115	–	–
[17], 10000 nM	–	–	87.3	–	–
[18], 24 h	–	–	–	–	15

drug-induced phospholipidosis [%], [7]
Details	0.3 µM	0.833333 µM	3.33333 µM	6.66667 µM	10 µM	30 µM
24 h	0.84	1.04	6.25	11.9	29.1	83.9
48 h	1.54	0.53	4.06	7	14.2	37.6
72 h	2.87	1.74	3.1	5.35	9.65	19.3

Details	drug sensitivity score	relative viability EC50 [µM]
[9]	–	> 10
[10]	–	> 10
[11]	–	> 10
[12]	–	> 10
[13]	1.7	–
[14]	0.9	–
[15]	0	–
[16]	0.4	–
[19]	–	> 10
[20]	0	–

C(#Cc1nc2ncccc2nc1OCCN1CCCC1)c1ccccc1 [GK921]
Details	SARS-CoV-2 infection rate, [6] [%]	cell count, [1] [%]	cell viability, [2] [%]	cell viability, [3] [%]	cell viability, [4] [%]	cell viability, [5] [%]	cell viability, [17] [%]	morphology score, [8]
1 nM	–	–	100	92.4	97.1	97.2	98.7	–
10 nM	–	–	98.2	99.3	95.7	97.6	90.9	–
0.1 µM	100	101	–	–	–	–	–	0.03
100 nM	–	–	101	102	99.2	94.9	93.1	–
0.3 µM	102	102	–	–	–	–	–	-0.05
1 µM	101	95	–	–	–	–	–	0.02
1000 nM	–	–	99.5	74.5	72.2	103	93.3	–
3 µM	53	86	–	–	–	–	–	0.48
10000 nM	–	–	3.8	-0.3	-0.2	0	2.5	–

drug-induced phospholipidosis [%], [7]
Details	24 h	48 h	72 h
0.3 µM	2.77	8.46	11.7
0.833333 µM	6.24	5.53	2.54

Details	drug sensitivity score	relative viability EC50 [µM]
[9]	–	3.13
[10]	–	1.53
[11]	–	1.46
[12]	–	3.35
[13]	5.4	–
[14]	9.4	–
[15]	9.7	–
[16]	5.3	–
[19]	–	2.61
[20]	6.4	–

CCCCN1[C@@H]2CC[C@H]1C[C@@H](OC(c1ccc(F)cc1)c1ccc(F)cc1)C2 [JHW-007]
Details	SARS-CoV-2 infection rate [%]	cell count [%]	cell viability [%]	morphology score	phospholipidosis EC50 [µM]
[1], 0.1 µM	–	102	–	–	–
[1], 0.3 µM	–	106	–	–	–
[1], 1 µM	–	114	–	–	–
[1], 3 µM	–	116	–	–	–
[2], 1 nM	–	–	98.9	–	–
[2], 10 nM	–	–	98.3	–	–
[2], 100 nM	–	–	102	–	–
[2], 1000 nM	–	–	76	–	–
[2], 10000 nM	–	–	61.2	–	–
[3], 1 nM	–	–	96.6	–	–
[3], 10 nM	–	–	95.1	–	–
[3], 100 nM	–	–	96	–	–
[3], 1000 nM	–	–	103	–	–
[3], 10000 nM	–	–	36.1	–	–
[4], 1 nM	–	–	102	–	–
[4], 10 nM	–	–	97.9	–	–
[4], 100 nM	–	–	99.9	–	–
[4], 1000 nM	–	–	91.9	–	–
[4], 10000 nM	–	–	70.6	–	–
[5], 1 nM	–	–	102	–	–
[5], 10 nM	–	–	104	–	–
[5], 100 nM	–	–	100	–	–
[5], 1000 nM	–	–	99.3	–	–
[5], 10000 nM	–	–	61.8	–	–
[6], 0.1 µM	103	–	–	–	–
[6], 0.3 µM	85	–	–	–	–
[6], 1 µM	58	–	–	–	–
[6], 3 µM	20	–	–	–	–
[8], 0.1 µM	–	–	–	0.03	–
[8], 0.3 µM	–	–	–	0.4	–
[8], 1 µM	–	–	–	0.72	–
[8], 3 µM	–	–	–	0.93	–
[17], 1 nM	–	–	96.8	–	–
[17], 10 nM	–	–	96.8	–	–
[17], 100 nM	–	–	98.4	–	–
[17], 1000 nM	–	–	96.6	–	–
[17], 10000 nM	–	–	28	–	–
[18], 24 h	–	–	–	–	1.59
[18], 48 h	–	–	–	–	3.06
[18], 72 h	–	–	–	–	3.56

drug-induced phospholipidosis [%], [7]
Details	0.3 µM	0.833333 µM	3.33333 µM	6.66667 µM	10 µM
24 h	6	18.5	80.2	92.2	90
48 h	6.06	12.4	63.9	99	103
72 h	9.39	14.6	61.5	99.8	110

Details	drug sensitivity score	relative viability EC50 [µM]
[10]	–	3.44
[13]	4.8	–
[14]	3.2	–
[15]	2.4	–
[16]	1.9	–
[19]	–	2.8
[20]	4.5	–
